Each structure is given as a SMILES string.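 Tested at 5 concentrations; 48 h exposure; 96-well plates; endpoints linearly interpolated, else capped at highest concentration. GI50 = concentration required for 50% inhibition of growth.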 Active and inactive are the calls of the source. Cut-off read from the data, not from the text of the source: active = GI50 up to about 1.1 µM and inactive = higher.

Common to all, as to test: NCI-60 cell line screen, 48 h
Test [1] concerns HCT-116.
Test [2] has as its system HL-60.
Test [3] concerns HOP-62.
Test [4] deals with HT-29.
In test [5] the test system is Hs-578T.
Test [6] concerns IGROV-1.
Test [7] concerns K562.
Test [8] relates to MCF7.
Test [9] concerns PC-3.
Test [10] relates to RXF 393.
Test [11] relates to SF-268.
Test [12] relates to SK-MEL-2.
For test [13], the system named is SNB-19.
Test [14] concerns TK-10.
The test system of test [15] is U-251.
Test [16] deals with OVCAR-3.
In test [17] the test system is SF-295.
Test [18] concerns SK-MEL-5.
Test [19] concerns BT-549.

As to `C[C@H](CCC(=O)O)[C@H]1CC[C@H]2[C@@H]3[C@@H](O)C[C@@H]4C[C@H](O)CC[C@]4(C)[C@H]3C[C@H](O)[C@]12C`, the GI50 in test [1] was > 100 µM (inactive); in [2] it was > 100 µM (inactive); in test [3], > 100 µM (inactive); in [4] it was > 100 µM (inactive); in [5] it was 16.4 µM (inactive); in test [6], > 100 µM (inactive). For the same compound, the GI50 in test [7], in test [8], in [9], in test [10], in test [11] and in [12] was > 100 µM (inactive) in each case. Also, the GI50 in test [13], in test [14] and in test [15] was > 100 µM (inactive) each time.

Turning to `COc1ccc(N2C(=O)C3c4[nH]c5ccccc5c4C4CCCCCCCC4C3C2=O)cc1` (stereo not given), the GI50 in test [1] was 1.7 µM (inactive); in [2] it was > 10 µM (inactive); in [3] it was > 10 µM (inactive); in [4] it was > 10 µM (inactive); in [5], > 10 µM (inactive); in test [6], > 10 µM (inactive). The GI50 in test [7], in test [8], in test [16], in test [9], in test [10] and in test [11] was > 10 µM (inactive) each time. Further, the GI50 in test [17], in test [12], in test [18], in test [13], in test [14] and in test [15] was > 10 µM (inactive) in each case.

`CCCCN(CCCC)C(=O)C(=O)C(C(=O)c1ccc(OC)cc1)c1ccc(OC)cc1` (stereo not given): the GI50 in [1], in test [2], in [3], in test [4], in test [6] and in [7] was > 100 µM (inactive) each time. The GI50 in test [16] is > 100 µM (inactive); in test [10] it was 35.5 µM (inactive); in test [11], > 100 µM (inactive); in test [17], > 100 µM (inactive); in test [12], > 100 µM (inactive); in [18], 69 µM (inactive). The GI50 in [13], in test [14] and in [15] was > 100 µM (inactive) throughout.

Consider `CC(NC(CC12CC3CC(CC(C3)C1)C2)C(N)=O)c1ccccc1` (stereo not given), for which the GI50 is 18.7 µM (inactive) in [1]; 10.1 µM (inactive) in [2]; 28.1 µM (inactive) in [3]; 21 µM (inactive) in test [4]; 39.7 µM (inactive) in test [6]; 17.5 µM (inactive) in test [7]. Also, the GI50 was 35 µM (inactive) in test [8]; 13.2 µM (inactive) in test [16]; 27 µM (inactive) in [9]; 25 µM (inactive) in test [11]; 13 µM (inactive) in [17]; 13.4 µM (inactive) in test [18]. Besides, the GI50 in [13] is 28.9 µM (inactive); in [14], 26.6 µM (inactive); in test [15], 13.3 µM (inactive).

For `COc1cc(CNC(=O)CCCCCCCC/C=C/Br)ccc1O`, the GI50 in test [1], in test [2], in test [3], in test [4], in test [5] and in test [6] was > 10 µM (inactive) throughout. For the same compound, the GI50 in test [7], in [8], in test [16], in test [9], in test [10] and in test [11] was > 10 µM (inactive) in each case. The GI50 in test [17], in [12], in test [18], in test [13], in [14] and in test [15] was > 10 µM (inactive) throughout.

Take `CCOP(=O)(OCC)C(c1ccc(F)cc1)N(C(=O)NC(F)(F)F)c1ccc(F)cc1` (stereo not given): the GI50 in test [1], in test [2], in test [3], in [4], in test [5] and in test [6] was > 100 µM (inactive) in each case. The GI50 in [7], in test [8], in test [16], in test [9], in [10] and in test [11] was > 100 µM (inactive) throughout. In addition, the GI50 in [17], in test [18], in test [13], in test [14] and in [15] was > 100 µM (inactive) in each case.

In the case of `COC(=O)C1(NC(=O)C(Cc2ccccc2)N(C(=O)OC(C)(C)C)C(=O)OC(C)(C)C)CCCC1` (stereo not given), the GI50 in test [1] is 55.7 µM (inactive); in [2] it was 22.1 µM (inactive); in test [3], 77.8 µM (inactive); in test [5], > 100 µM (inactive); in test [6], > 100 µM (inactive); in [7], 43 µM (inactive). Further, the GI50 in test [8] is 27.5 µM (inactive); in test [9] it was 31 µM (inactive); in test [11], > 100 µM (inactive); in test [12] it was > 100 µM (inactive); in test [18], > 100 µM (inactive); in [13] it was > 100 µM (inactive). The GI50 in [14] is 32.7 µM (inactive); in [15], 49.5 µM (inactive).

For `Cc1cc(C#N)c(Nc2ccc(F)cc2[N+](=O)[O-])s1`, the GI50 is 24.4 µM (inactive) in test [19]; > 100 µM (inactive) in [1]; 30.3 µM (inactive) in test [3]; > 100 µM (inactive) in test [7]; > 100 µM (inactive) in test [16]; > 100 µM (inactive) in test [9]. For the same compound, the GI50 in test [10] is 20.2 µM (inactive); in test [11], 25.5 µM (inactive); in test [17], 30.8 µM (inactive); in test [13], > 100 µM (inactive); in test [15], 26.8 µM (inactive).

On to `O=C1C2=Cc3ccccc3OC2(O)Oc2ccc(O)cc21` (stereo not given), for which the GI50 was 4.71 µM (inactive) in test [19]; > 100 µM (inactive) in [1]; 57.1 µM (inactive) in test [3]; > 100 µM (inactive) in test [4]; 56.4 µM (inactive) in test [6]; 28.1 µM (inactive) in [7]. Moreover, the GI50 is > 100 µM (inactive) in test [8]; 36.7 µM (inactive) in test [16]; 73.3 µM (inactive) in test [9]; > 100 µM (inactive) in test [10]; > 100 µM (inactive) in test [11]; > 100 µM (inactive) in [17]. Besides, the GI50 was > 100 µM (inactive) in test [12], 44.1 µM (inactive) in test [18], > 100 µM (inactive) in test [14] and > 100 µM (inactive) in test [15].

In the case of `O=c1c2cn[nH]c2nc2scc(-c3ccc(Cl)cc3)n12`, the GI50 in test [1] is > 100 µM (inactive); in test [3], > 100 µM (inactive); in test [4], > 100 µM (inactive); in test [5], 41.7 µM (inactive); in [6], > 100 µM (inactive); in test [7] it was > 100 µM (inactive). Further, the GI50 in [8], in [16], in test [9], in test [10], in test [11] and in test [17] was > 100 µM (inactive) throughout. The GI50 in test [12] is 53.6 µM (inactive); in test [18] it was > 100 µM (inactive); in test [13], > 100 µM (inactive); in [14], > 100 µM (inactive); in test [15] it was > 100 µM (inactive).

`COC(=O)c1ccc2c(c1)CC1(C2)Cc2ccccc2C1=O` (stereo not given): the GI50 in [1] was 23.8 µM (inactive); in test [2], 26.5 µM (inactive); in [3] it was 38.5 µM (inactive); in test [4], 17.5 µM (inactive); in [5], 69.7 µM (inactive); in [6], 33.3 µM (inactive). Also, the GI50 in [7] is 30.3 µM (inactive); in [8] it was 22.9 µM (inactive); in [16], 29.1 µM (inactive); in [9], 42.8 µM (inactive); in test [10], 33.3 µM (inactive); in test [11], 35 µM (inactive). The GI50 is 39.4 µM (inactive) in test [17]; 27.4 µM (inactive) in test [12]; 17.9 µM (inactive) in [18]; 66.1 µM (inactive) in [13]; 31 µM (inactive) in [14]; 34.2 µM (inactive) in test [15].

Turning to `O=C(NCCCl)Nc1cccnc1`, the GI50 in test [1] was 13.8 µM (inactive); in test [2], 49.3 µM (inactive); in [3], 34.4 µM (inactive); in test [4] it was 18.4 µM (inactive); in test [6], 13.6 µM (inactive); in test [7] it was 50 µM (inactive). Also, the GI50 is 41.3 µM (inactive) in test [8]; 26.5 µM (inactive) in [16]; 31.4 µM (inactive) in test [9]; 0.951 µM (active) in test [10]; 30 µM (inactive) in test [17]; 29 µM (inactive) in test [12]. The GI50 in test [18] is 5.19 µM (inactive); in [13], 41.4 µM (inactive); in [14], 11.2 µM (inactive); in test [15], 16.7 µM (inactive).

These data come from ChEMBL document CHEMBL1201862, “PubChem BioAssay data set” (2004).
